Assay results as given in ChEMBL document CHEMBL3507680, “University of Dundee, Gates Library screen for HepG2 cell viability”.

Test: Human HepG2 cell viability assay in 384 well format
Format: toxicity, cell-based
Set-up: dose 125 nL, time 70.5 hour; concentration not given beside the values
Settings: HepG2 cells, read-out: Inhibition

Structure (SMILES)	cytotoxicity at 70.5 h
Cc1c(C2SCC(=O)Nc3c2c(O)nn3C2CCCCC2)cnn1C (stereo not drawn)	-24.4%
COc1c(C2CCCN2C(=O)c2cc(C3CC3)on2)c(C)nn1C (stereo not drawn)	-5.95%
CCc1ccc(C(=O)NC[C@H]2CCCN2C(=O)c2ccc(CC)o2)o1	2.7%
CCN(CC)C(=O)C1CCC2(CCNCC2)O1 (stereo not drawn)	-12.5%
COc1ccnc(N2CCC3(CC2)[C@H](O)C[C@@H]3OCCN(C)C)n1	2.31%
CCOc1ccccc1C(N)CC(C)C (stereo not drawn)	-0.686%
CN(Cc1ccc(C#N)cc1)CC1CCS(=O)(=O)C1 (stereo not drawn)	-8.96%
Cn1c(N)nnc1SCc1c(F)cccc1Br	-3.61%
O=C1CCCN1CCN1CCCCC1Cn1cncn1 (stereo not drawn)	17.7%
C=C(C)COc1cccc(CN(CC)Cc2noc(C)n2)c1	-0.0989%
CCc1csc(CNC2CCN(Cc3ccccc3)C2)n1 (stereo not drawn)	-8.44%
CC(C)(N)CNS(=O)(=O)Cc1cccc2cccnc12	1.51%
Cc1ccc(CN2CC[C@H](O)[C@@H](n3ccc(=O)[nH]c3=O)CC2)cc1	-2.58%
CSCC(=O)N[C@H]1CN(Cc2c(C)noc2C)C[C@@H]1C(C)C	-0.898%
COCc1ncn2c1CN(C(=O)Nc1ccccc1)CC2	-4.33%
Cn1cncc1CN1C[C@@H]2OCCN(c3ncccn3)[C@@H]2C1	-9.56%
C[C@H]1CN(C)C[C@@]12COCCN(C(=O)Cc1ccccc1)C2	0.777%
CCC[C@@H]1CN(Cc2c[nH]c(CC3CCCC3)n2)C[C@H]1C(=O)O	-7.4%
CCc1nccn1CCC(=O)N1CCOC(c2ccc(F)cc2)C1 (stereo not drawn)	-6.46%
CN1C[C@@H](COCC2CC2)[C@H]2CCN(Cc3ccco3)CC[C@H]2C1=O	-5.7%
COc1ccccc1-c1ncc(CN2CCCC[C@H](N(C)C)C2)s1	4.63%
Cc1nc2ncc3c(=O)n(C)ccc3n2n1	-8.63%
CC(C(=O)N1CCCN(c2ccc(C#N)cc2)CC1)n1cccn1 (stereo not drawn)	-3.9%

Structure (SMILES)	cytotoxicity at 70.5 h
CCOc1ncccc1CNS(=O)(=O)c1ccc2c(c1)CCCC(=O)N2	-4.49%
N#Cc1ccnc(N2CCN(C3CCOC3=O)CC2)c1 (stereo not drawn)	14.2%
Cc1ccc(F)c(CNc2ccn(CCC(N)=O)n2)c1	3.53%
COc1ccc(C(C)N(C)Cc2c(C(C)(C)C)[nH]c3ncccc23)cc1 (stereo not drawn)	12.9%
CCCN(CC1CC1)C(=O)CN1CCCC1c1cnn(C)c1 (stereo not drawn)	-10.4%
O=C(CCc1cn[nH]c1)N1C[C@@H](CN2CCOCC2)C[C@H](CO)C1	8.69%
Cc1ccc2c(c1)c(CNC(=O)C1CCN(CC(N)=O)CC1)nn2C	-2.32%
COCCN1C[C@@H]2CN(S(=O)(=O)c3cccs3)C[C@@H]2C1=O	-8.88%
Cc1c(CN2CCCC(C(=O)c3ccccc3)C2)cc(C#N)n1C (stereo not drawn)	-4.58%
CC(C)Nc1nc(N2CCCC2)nc2c1CN(C(C)C)CC2	0.846%
CCc1nnsc1C(=O)NCCn1nc2ccccn2c1=O	31.6%
CCOCCCC(=O)Nc1cc(C(N)=O)ccc1N1CCCCC1	-9.3%
Cn1nnc(NCc2ccc(-c3ccc(Cl)cc3)o2)n1	-4.59%
CC(C)CN1C(=O)c2ccc(C(=O)NCCc3c[nH]cn3)cc2C1=O	-0.52%
CCN(CC)CCc1nc2c([nH]1)CC(c1ccc(Cl)cc1)CNC2=O (stereo not drawn)	-3.81%
Cn1ncc2c1C(COCC1CC1)CN(C(=O)c1cscn1)C2 (stereo not drawn)	-7.06%
CCOc1cc(CN(C)CCCC#N)ccc1OC(F)F	-6.87%
Cc1nc(CSCCC(=O)NCc2cccnc2N(C)C)cs1	-13.6%
CN(C)c1nccc(N(C)C2CCCCC2)n1	-4.22%
CCCOc1ccc(C(=O)Oc2cc(=O)n3cccc(C)c3n2)cc1	-0.525%
COc1ccccc1[C@@H]1CN(C(=O)c2csc(C)n2)C[C@H]1C(=O)O	-2.79%
CO[C@H]1CCN(C2CCOCC2)C[C@@H]1Cc1ccccc1	-7.39%
O=C1CC[C@]2(CC[C@@H](NCc3ccoc3)CC2)N1	-2.86%

Structure (SMILES)	cytotoxicity at 70.5 h
CS(=O)(=O)N1CCC[C@]2(C[C@@H](Oc3ncccc3F)CO2)C1	-5.05%
CCOC(=O)C1CCN(c2nccc(-n3nc(C)cc3C)n2)CC1	-3.45%
COc1ccccc1C1(CNCc2ccc(C#N)cc2)CCOCC1	-6.31%
CS(=O)(=O)NCC1CCCN(C(=O)Nc2ccccc2Cl)C1 (stereo not drawn)	1.65%
Cc1nnc(CN2CCC(N(C)Cc3nnc(C4CC4)n3C)C2)o1 (stereo not drawn)	-21.8%
Cc1nc(C(C)C)sc1C(C)N(C)C(=O)c1ccc(=O)n(C)n1 (stereo not drawn)	-1.77%
CCOc1ccc(CN(C)C(=O)COc2ccc(C)nc2)cc1	-8.96%
CCOC(=O)CSc1nnc(C(N)CC(C)C)o1 (stereo not drawn)	-7.86%
c1cnnc(N2CCCC(NCc3ccc(-n4ccnc4)cc3)C2)c1 (stereo not drawn)	-10.5%
CCc1noc(C(C)N2CCC(NS(=O)(=O)c3cccs3)CC2)n1 (stereo not drawn)	-11.6%
Cc1cccn2c(=O)cc(OC(=O)c3ccc(OC(C)C)cc3)nc12	-14.3%
CN(C)c1ccccc1C(=O)N1CCCC(c2ccc(C(=O)O)cc2)C1 (stereo not drawn)	-17.2%
Cc1ccc(OCc2nc(CNCC3CN(C)CCO3)cs2)cc1 (stereo not drawn)	29.7%
O=C(c1ccsc1)N1CCC2(CC1)CCN(S(=O)(=O)C1CC1)CC2	-9.77%
CN(C)c1cc(C(=O)N2CCCC2)ccn1	-10%
CN1CCN(Cc2ccccc2Cl)CC12CCC(=O)N(CC1CC1)CC2 (stereo not drawn)	0.313%
CSC1(CNc2ccc(Br)cn2)CCOCC1	-2.33%
C=C(C)CN(CC)S(=O)(=O)c1c(F)cc(NC(C)=O)cc1F	-3.3%
Cc1cccc(CN2CCO[C@@H]3CC(COc4ccccn4)C[C@H]32)n1 (stereo partly drawn)	5.17%
CC(=O)NCC(=O)NCC1(O)CCN(c2cnccn2)C1 (stereo not drawn)	15.9%
CN1C(=O)C2(CCN(C(=O)c3cccnc3)CC2)c2cccc(F)c21	-2.04%
CS(=O)(=O)N1Cc2ccccc2C2(CCN(C(=O)c3ccno3)CC2)C1	7.95%
COc1ccc(CNC(=O)NCc2nc(C)c(C)s2)cn1	-5.21%

Structure (SMILES)	cytotoxicity at 70.5 h
O=C(c1nc(COc2ccc3c(c2)OCO3)no1)N1CCCC1	-3.83%
CCOC(=O)N1CCN(C(=O)C(C)n2ccnc2C(C)C)CC1 (stereo not drawn)	8.16%
CCOc1ccc(C(=O)CCC(=O)N(C)Cc2snnc2C)cc1C	-7.49%
CC(=O)N1CCO[C@@H]2CN(C(=O)c3ccc4ccccc4c3)CC[C@@H]2C1	-2.64%
COc1ccc(OC)c(-n2nnnc2SCC2CCCN(C)C2)c1 (stereo not drawn)	-3.08%
CN1CCN(C(=O)c2ccccc2)CC(Cc2cc(N(C)C)ncn2)C1 (stereo not drawn)	-3.72%
CCc1nc(C2CCCN2CCCS(=O)(=O)c2ccccc2)no1 (stereo not drawn)	-7.66%
COCCCNC(=O)CN(C)C(=O)CN(C)c1ccc(C#N)cn1	-7.44%
Cc1ccccc1-c1noc(CN2CCC(c3ccn[nH]3)CC2)n1	30.9%
CSCC(CCO)NC(=O)c1cccc(C)c1Cl (stereo not drawn)	-13.9%
O=C(C1CC(=O)N(C2CCCC2)C1)N1CCN(CCn2cccc2)CC1 (stereo not drawn)	-5.71%
CC(C)CNc1nccc(-c2cnc3sc(Cl)cn3c2=O)n1	-6.64%
Cc1cc(N(C)C)nc(C2CCCN2)n1 (stereo not drawn)	-3.78%
Cn1ccnc1CN1CCN(CCOc2ccccc2C#N)CC1	23.6%
O=S(=O)(NC1=NCN(CCc2cccs2)CN1)c1ccc(Br)cc1	-18.9%
CCN1CC2(CCN(CC3CCCO3)CC2)OC1=O (stereo not drawn)	-2.54%
Cc1ccccc1C(=O)NC[C@@H]1CCN(C(=O)c2cscn2)C[C@H]1O	18.9%
Cc1cc(Br)ccc1C(=O)Nc1c(C(N)=O)n[nH]c1C	-9.24%
NC(=O)C1CCCN(S(=O)(=O)c2cnn(-c3ccccc3)c2)C1 (stereo not drawn)	-1.76%
Cn1cc(CN2CCC(Cn3cc(-c4ccccc4)nn3)CC2)cn1	-4.28%
CC(NC(=O)NCCCN(C)S(C)(=O)=O)c1ccc(F)cc1 (stereo not drawn)	16.8%
CCCN(C1CCc2ccccc2C1)S(C)(=O)=O (stereo not drawn)	-2.87%
CC(=O)Nc1cnc(-n2ccnc2)nc1	-1.27%

Structure (SMILES)	cytotoxicity at 70.5 h
CN(C)CCO[C@@H]1CC[C@H]2[C@H]1OCCN2C(=O)c1ccccc1F	-10.8%
O=C([C@@H]1C[C@H]2[C@H](CCN2Cc2nccs2)O1)N1CCOCC1	-8.03%
Cc1nccn1C1CCCN(C(=O)c2cnn(C)c2C2CC2)C1 (stereo not drawn)	-0.648%
COc1cccc2sc(N3CCN(C(=O)c4cc(C)on4)CC3)nc12	-2.51%
Cn1cc(-c2cnc(N3CCOCC3)nc2)cc1C(=O)NCCO	-6.33%
CCc1noc(C(C)N2CCN(Cc3nnc(C4CC4)o3)CC2)n1 (stereo not drawn)	-14.9%
COc1cccc(OCC(=O)N(C)c2cccnc2N(C)C)c1	-8.02%
CCOCCOc1ccc(S(=O)(=O)N2CCc3c(nc[nH]c3=O)C2)cc1	1.59%
CCC(=O)N1CCCC(c2nc(-c3cccnn3)no2)C1 (stereo not drawn)	-0.455%
CC(C)N1c2sc(-c3ccccc3)nc2CC1C(=O)NC1CCCC1 (stereo not drawn)	-6.93%
CC(C)NC(=O)c1nc(Cn2c(C(F)F)nc3ccccc32)no1	-15.2%
CCC(O)CN1CCN(C(=O)c2cccc(CC#N)c2)CC1 (stereo not drawn)	1.07%
O=C([C@H]1C[C@H]2OCC[C@H]2N(Cc2cccnc2)C1)N1CCCO1	0.465%
Cn1ccc(C(=O)NCc2ccccc2Cn2ccnc2)cc1=O	-8.24%
CS(=O)(=O)N1CC[C@@H]2O[C@@H](COCC(=O)N3CCCC3)CC[C@@H]21	22.1%
NC(=O)C1CN(c2ccc(F)cc2)CCN1 (stereo not drawn)	-2.98%
CN1CCN(C(=O)c2cc3occc3n2Cc2ccccc2F)CC1	-10.6%
O=C(NCC(O)COc1ccc(F)cc1)C1(c2ccc(F)cc2)CC1 (stereo not drawn)	-8.65%
COC[C@@H]1CCC[C@@]12CN(Cc1ccco1)CCO2	-15.7%
COc1ncccc1CN1C[C@@H]2COC[C@]2(COc2ccccn2)C1	-20.4%
Cc1cccc2cc(CN3CCC(N4CCCC4)CC3)c(=O)[nH]c12	-6.75%
